Columns and labels:
[1] = Inhibition of 5'FAM-labeled and 3'DAB-labeled Precursor microRNA-372 (unknown origin) assessed as inhibition of Dicer-induced pre-miR-372 cleavage by measuring fluorescence incubated for 30 min in presence of human recombinant Dicer by FRET Dicer assay
[2] = Inhibition of 5'FAM-labeled and 3'DAB-labeled Precursor microRNA-373 (unknown origin) assessed as inhibition of Dicer-induced pre-miR-373 cleavage by measuring fluorescence incubated for 30 min in presence of human recombinant Dicer by FRET Dicer assay
AGS [3] = test: Antiproliferative activity against human AGS cells assessed as reduction in cell viability at 25 uM measured after 4 days by CellTiter96 assay relative to control; format: functional; settings: 96 h, time 4 day
[4] = Binding affinity to pre-miR-21 (unknown origin) assessed as dissociation constant by Monolith NT.115 microscale thermophoresis based analysis
[5] = Binding affinity to HIV-1 mRNA assessed as dissociation constant; set-up: species or system Human immunodeficiency virus 1
[6] = Inhibition of miR-21 (unknown origin) at 1 uM by differential scanning fluorometry analysis relative to control
[7] = Displacement of Tat from TAR mRNA by FRET analysis
[8] = Binding affinity to TAR mRNA assessed as dissociation constant by ITC analysis
HeLa [9] = test: Inhibition of miR-21 in human HeLa cells assessed as reduction in relative light unit at 10 uM by luciferase reporter assays relative to control; format: cell-based
[10] = Antiproliferative activity against human U87 cells assessed as reduction in cell viability by XTT assay; format: functional, cell-based, U-87MG ATCC; settings: U-87 MG
A498 = test: Antiproliferative activity against human A498 cells assessed as reduction in cell viability by XTT assay; format: functional, cell-based
HeLa [11] = test: Induction of apoptosis in human HeLa cells; format: functional
[12] = Induction of apoptosis in human U-87 MG cells; format: functional, U-87MG ATCC
HEK293 [13] = test: Inhibition of miR-125a in human HEK293 cells relative to control; format: cell-based; settings: dose or concentration not given here
[14] = molecular target: T1, Muscleblind-like protein 1 (Homo sapiens) (UniProt Q9NR56); test: Inhibition of MBNL1 (unknown origin) in human GDM-1 cells assessed as rescue of IR exon splicing defect at 100 pM by PCR analysis relative to control; format: cell-based
T1 sequence (whole entry): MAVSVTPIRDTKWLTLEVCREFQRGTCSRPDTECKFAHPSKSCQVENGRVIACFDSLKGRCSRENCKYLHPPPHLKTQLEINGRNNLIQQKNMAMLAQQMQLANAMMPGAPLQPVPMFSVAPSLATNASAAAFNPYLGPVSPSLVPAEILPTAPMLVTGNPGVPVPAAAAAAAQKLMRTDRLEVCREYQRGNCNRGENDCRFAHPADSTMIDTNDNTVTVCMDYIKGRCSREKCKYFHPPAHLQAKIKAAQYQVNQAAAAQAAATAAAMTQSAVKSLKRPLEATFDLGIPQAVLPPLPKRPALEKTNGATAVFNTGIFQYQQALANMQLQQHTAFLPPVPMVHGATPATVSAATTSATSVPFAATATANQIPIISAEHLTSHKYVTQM

[15] = Downregulation of miR-122 expression in human Huh-7 cells at 10 uM incubated for 48 hrs by RT-PCR analysis relative to control; format: functional
Hepatitis C virus = test: Antiviral activity against HCV JFH-1 infected in human Huh-7 cells assessed as reduction in viral replication measured after 48 hrs by RT-PCR analysis relative to control; format: functional, Hepacivirus hominis; set-up: scale not given: the % may be the effect or the level left
[16] = Binding affinity to miR-21 (unknown origin) assessed as dissociation constant by fluorescence based analysis
[17] = Upregulation of miR-122 expression in human Huh-7 cells at 10 uM incubated for 48 hrs by RT-PCR analysis relative to control; format: functional
MDA-MB-231 = test: Inhibition of miR-21 in human MDA-MB-231 cells assessed as decrease in pre-miR-21 level at 50 nM relative to control; format: cell-based
[18] = Inhibition of miR-21 in human MDA-MB-231 cells; format: cell-based
A549 = test: Inhibition of miR-21 in human A549 cells assessed as decrease in pre-miR-21 level at 50 nM relative to control; format: cell-based
A-375 = test: Inhibition of miR-21 in human A-375 cells assessed as decrease in pre-miR-21 level at 50 nM relative to control; format: cell-based
AGS [19] = test: Inhibition of miR-21 in human AGS cells assessed as decrease in pre-miR-21 level relative to control; format: cell-based; settings: dose or concentration not given here
[20] = Inhibition of miR-21 in human AGS cells assessed as decrease in pre-miR-21 level; format: cell-based
[21] = Binding affinity to miR-21 (unknown origin) at 5 uM by differential scanning fluorometry analysis relative to control
[22] = Binding affinity to miR-21 (unknown origin) assessed as dissociation constant
[23] = Inhibition of miR-21 (unknown origin) by luciferase reporter assays relative to control; settings: concentration not given here
[24] = Inhibition of miR-21 (unknown origin) maturation assessed as reduction in pre-miR-21 expression at 10 uM by RT-PCR analysis relative to control
[25] = Binding affinity to Precursor microRNA-372 (unknown origin) assessed as dissociation constant
[26] = Inhibition of Precursor microRNA-372 (unknown origin) assessed as inhibition of Dicer-induced pre-miR-372 cleavage
[27] = Induction of mRNA mediated IPRF assessed as increase in frame shifting efficiency at 10 uM in presence of M2-VPK sequence relative to control
[28] = Induction of mRNA mediated IPRF assessed as increase in frame shifting efficiency at 10 uM relative to control
HeLa [29] = test: Induction of mRNA mediated IPRF in human HeLa cells assessed as increase in frame shifting efficiency at 0.3 uM in presence of M2-FPK sequence relative to control; format: cell-based
HeLa [30] = test: Induction of mRNA mediated IPRF in human HeLa cells assessed as increase in frame shifting efficiency at 0.3 uM in presence of M1-FPK sequence relative to control; format: cell-based
HeLa [31] = test: Induction of mRNA mediated IPRF in human HeLa cells assessed as increase in frame shifting efficiency at 10 uM in presence of F-VPK sequence relative to control; format: cell-based
HEK293 [32] = test: Inhibition of miR-125a in human HEK293 cells assessed as increase in mature miR-21 level at 50 uM relative to control; format: cell-based
HEK293 [33] = test: Inhibition of miR-125a in human HEK293 cells assessed as increase in pre miR-21 level at 50 uM relative to control; format: cell-based
[34] = Downregulation of alpha-Synuclein level in human SH-SY5Y cells at 5 uM relative to control; format: functional

NC[C@@H]1O[C@H](O[C@H]2[C@@H](O)[C@H](O[C@@H]3[C@@H](O)[C@H](N)C[C@H](N)[C@H]3O[C@H]3O[C@H](CN)[C@@H](O)[C@H](O)[C@H]3N)O[C@@H]2Cn2cc(CCC(=O)Nc3ccc(-c4csc(NC(=O)c5ccc(Cl)cc5)n4)cc3)nn2)[C@H](N)[C@@H](O)[C@@H]1O
IC50 [1]: 980 nM | IC50 [2]: 2190 nM | inhibition at 25 µM (AGS [3]): 50%

CCCN(CC(=O)N(CCC)CC(=O)N(CCC)CC(=O)N(CC(=O)O)Cc1cn(CCCNC(=O)CCCOc2ccc(-c3nc4ccc(-c5ccc(N6CCN(C)CC6)cc5)cc4[nH]3)cc2)nn1)C(=O)CNCc1cn(CCCNC(=O)CCCOc2ccc(-c3nc4ccc(-c5ccc(N6CCN(C)CC6)cc5)cc4[nH]3)cc2)nn1
Kd [4]: 980 nM

CC(=O)Nc1nc(-c2cccc(NC(=O)C(CNC(=O)[C@@H](N)CCCNC(=N)N)NC(=O)[C@@H](N)CCCNC(=N)N)c2)cs1 (stereo partly specified)
Kd [5]: 2400 nM

NC[C@@H]1O[C@H](O[C@H]2[C@@H](O)[C@H](O[C@@H]3[C@@H](O)[C@H](N)C[C@H](N)[C@H]3O[C@H]3O[C@H](CN)[C@@H](O)[C@H](O)[C@H]3N)O[C@@H]2CSCCNC(=O)CCCCCn2cc(COc3ccc4c(c3)C(=O)N(O)C(=O)C4)nn2)[C@H](N)[C@@H](O)[C@@H]1O
inhibition [6]: 90%

CN(C)CCCn1cc(CNC(=O)Cc2csc(NC(=O)Cc3csc(N)n3)n2)nn1
DC50 [7]: 1500 nM | Kd [8]: 540 nM

C#CCOc1ccc(-c2noc(-c3nnn(-c4cccc(/C(C)=N/O)c4)c3N)n2)cc1
RLU (HeLa [9]): 2.19 | IC50 [10]: 3300 nM | IC50 (A498): 100000 nM

C#CCNC(=O)c1ccc(NC(=O)c2ccccc2Br)cc1
Activity (HeLa [11]): 24% | Activity [12]: 13%

COc1ccc(NCC(O)Cn2c3ccc(Br)cc3c3cc(Br)ccc32)cc1 (stereo unspecified)
inhibition [6]: 59%

NC[C@@H]1O[C@H](O[C@H]2[C@@H](O)[C@H](O[C@@H]3[C@@H](O)[C@H](N)C[C@H](N)[C@H]3O[C@H]3O[C@H](CN)[C@@H](O)[C@H](O)[C@H]3N)O[C@@H]2Cn2cc(CCC(=O)Nc3ccc(-c4csc(NC(=O)c5ccc(N)cc5)n4)cc3)nn2)[C@H](N)[C@@H](O)[C@@H]1O
IC50 [1]: 1080 nM | IC50 [2]: 1100 nM

CCn1cc(C(=O)NC(C)(C)C)c(=O)c2cc(F)c(N3CCNCC3)nc21
inhibition (HEK293 [13]): 20%

C#CC(=O)NCCCCCC(=O)N(CCN(C)C(=O)CCCOc1cccc(-c2nc3ccc(-c4nc5ccc(N6CCN(C)CC6)cc5[nH]4)cc3[nH]2)c1)CC(=O)N(C)[C@@H](C)C(=O)N(C)[C@@H](C)C(=O)N(C)[C@@H](C)C(=O)N(CCCCN(C)C(=O)CCCOc1cccc(-c2nc3ccc(-c4nc5ccc(N6CCN(C)CC6)cc5[nH]4)cc3[nH]2)c1)CC(=O)N(CCCN=[N+]=[N-])CC(N)=O
inhibition [14]: 100%

O=C(Nc1ccc2ccccc2c1)c1ccc(Cl)cc1Cl
Activity [15]: 72% | Activity (Hepatitis C virus): 48%

CNC(=O)c1cc(Oc2ccc(NC(=O)Nc3ccc(Cl)c(C(F)(F)F)c3)c(F)c2)ccn1 [REGORAFENIB]
Kd [16]: 730 nM

CN(C)CCN1C(=O)c2cccc3cc(N)cc(c23)C1=O [AMONAFIDE]
Activity [17]: 450%

CCCN(CC(=O)N(CCC)CC(=O)N(CCC)CC(=O)N(CC(=O)NCCOCCOCCOCCOc1ccc(/C=C2\SC(Nc3ccccc3)=C(C(=O)OCC)C2=O)cc1O)Cc1cn(CCCNC(=O)CCCOc2ccc(-c3nc4ccc(-c5ccc(N6CCN(C)CC6)cc5)cc4[nH]3)cc2)nn1)C(=O)CNCc1cn(CCCNC(=O)CCCOc2ccc(-c3nc4ccc(-c5ccc(N6CCN(C)CC6)cc5)cc4[nH]3)cc2)nn1
inhibition (MDA-MB-231): 50% | IC50 [18]: 50 nM | inhibition (A549): 50% | inhibition (A-375): 50%

O=S(=O)(c1ccc2c(c1)CCCN2)N1CCC[C@@H]2CCCC[C@H]21
Activity [15]: 45% | Activity (Hepatitis C virus): 47%

CC(=O)Nc1csc(-c2cccc(NC(=O)CCc3cn(C[C@H]4O[C@@H](O[C@@H]5[C@@H](O)[C@H](N)C[C@H](N)[C@H]5O[C@H]5O[C@H](CN)[C@@H](O)[C@H](O)[C@H]5N)[C@H](O)[C@@H]4O[C@H]4O[C@@H](CN)[C@@H](O)[C@H](O)[C@H]4N)nn3)c2)n1
inhibition (AGS [19]): 100% | IC50 [20]: 2420 nM

NC[C@H]1O[C@H](O[C@H]2[C@H](O)[C@@H](O[C@H]3O[C@H](CNC(=O)CCC(=O)N[C@@H](Cc4ccccc4)C(=O)N[C@@H](CS)C(N)=O)[C@@H](O)[C@H](N)[C@H]3O)[C@H](N)C[C@@H]2N)[C@H](O)[C@@H](O)[C@@H]1O
Activity [21]: 140% | Kd [22]: 4.36 nM

C#CCNC(=O)c1ccc(/N=N/c2ccccc2)cc1
inhibition [23]: 11% | inhibition [24]: 78%

CNc1ccc(C2c3ccccc3N=C(NCCCNCCCCNCCCN)C2(C)C)cc1 (stereo unspecified)
Kd [25]: 150 nM | IC50 [26]: 1060 nM

Cc1ccc2ccc(NC(=O)CCN(CCCCCCCCN(CCC(=O)Nc3ccc4ccc(C)nc4n3)CCC(=O)Nc3ccc4ccc(C)nc4n3)CCC(=O)Nc3ccc4ccc(C)nc4n3)nc2n1
Activity [27]: 15% | Activity [28]: 13% | Activity (HeLa [29]): 0.32% | Activity (HeLa [30]): 0.35% | Activity (HeLa [31]): 21%

CCn1cc(C(=O)NCc2ccccc2)c(=O)c2cc(F)c(N3CCNCC3)nc21
inhibition (HEK293 [13]): 30%

Cc1ccccc1NCC(O)Cn1c2ccc(Br)cc2c2cc(Br)ccc21 (stereo unspecified)
inhibition [6]: 47%

CCn1cc(C(=O)O)c(=O)c2cc(F)c(N3CCNCC3)nc21
inhibition (HEK293 [32]): 150% | inhibition (HEK293 [33]): 100% | inhibition (HEK293 [13]): 100%

CN(C)CCCn1cc(CNC(=O)c2csc(NC(=O)c3csc(NC(=O)c4csc(N)n4)n3)n2)nn1
DC50 [7]: 10600 nM | Kd [8]: 6700 nM

c1cc(C2=NCCN2)ccc1Oc1ccc(-c2cc3ccc(C4=NCCN4)cc3[nH]2)cc1
Activity [34]: 40%

N#Cc1ccc(Nc2ccc(-c3nc4ccc(C#N)cc4[nH]3)cc2)cc1
Activity [34]: 40%

c1cc(C2=NCCN2)ccc1Oc1ccc(-c2nc3ccc(C4=NCCN4)cc3[nH]2)cc1
Activity [34]: 40%
